Experimental data from patent US20240252546A1, “NEURITE OUTGROWTH PROMOTION KIT AND USE THEREFOR” (KEIO UNIVERSITY, priority 2021, published 2024).

Tests used:
[1] = system: spinal cord injury in the chronic phase; settings: DAPT used on a neurosphere, neurosphere then transplanted into the site of injury; cited from earlier work
[2] = system: nerve cells induced from neurospheres derived from 201B7 cells; test: Neurite outgrowth of nerve cells differentiated from γ-secretase inhibitor-treated neurospheres (Experimental Example 1); type: cell-based, human; settings: for neurite outgrowth, Tau protein immunostaining / neurite outgrowth (length of the neurite), βIII-tubulin immunostaining: 201B7 neurospheres cultured 24 hours with inhibitor (10 μM DAPT, 1 μM Compound 34), differentiated 14 days; for neurite outgrowth (length of the neurite), βIII-tubulin immunostaining: vs control and other γ-secretase inhibitors
From the text: Various γ-secretase inhibitors were allowed to act on neurospheres derived from human iPS cells. Subsequently, each neurosphere was induced to differentiate into nerve cells, and the neurite outgrowth was examined. The following inhibitors were used as γ-secretase inhibitors: DAPT (CAS Number: 208255-80-5), Compound 34 (CAS Number: 564462-36-8), L-685,458 (CAS Number: 292632-98-5), LY411575 (CAS number: 209984-57-6), Sulindac (CAS number: 38194-50-2, which is also an anti-inflammatory drug), and Compound E (CAS number: 209986-17-4).
First, 201B7 cells, which are cells of a human iPS cell line, were differentiated into neurospheres. 3 μM SB431542 (Tocris Bioscience, catalog number: “301836-41-9”) and 150 nM LDN193189 (StemRD Inc., catalog number: “1062368-24-4”) were added to a culture medium of 201B7 cells, and the cells were treated for 6 days.
Subsequently, the cells were dissociated and seeded in a cell culture dish (product name: “ultralow-attachment culture dish”, Corning Incorporated) at a cell density of 1× 10^5 cells/mL in a nerve induction medium, and then cultured for 6 days in a hypoxic and moist environment (4% O2 and 5% CO2) to carry out differentiation into neurospheres.
The culture medium used as the nerve induction medium was a culture medium obtained by adding a 2% B27 supplement (without vitamin A, Thermo Fisher Scientific, Inc., catalog number: “17504-044”), 20 ng/ml of FGF2 (PeproTech, Inc.), 10 μM Y27632 (Sigma-Aldrich Co., LLC, catalog number: “146986-50-7”), 1 μM retinoic acid (RA, Sigma-Aldrich Co., LLC, catalog number: “R2625-1G”), 3 μM CHIR 99021 (ReproCELL Inc., catalog number: “04-0004”), and 10 μM SB431542 (Calbiochem, catalog number: “301836-41-9”), to an MHM medium of which the composition is shown in Table 1 below.
Subsequently, the formed neurospheres were dissociated into single cells, the single cells were passaged in a modified nerve induction medium and cultured for 6 days in a hypoxic environment (4% O2). The culture medium used as the modified nerve induction medium was a culture medium obtained by adding a 2% B27 supplement (without vitamin A, catalog number: “17504-044”, Thermo Fisher Scientific, Inc.), 20 ng/ml of FGF2 (PeproTech, Inc.), 10 μM Y27632 (catalog number: “146986-50-7”, Sigma-Aldrich Co., LLC), and 1 μM retinoic acid (RA, catalog number: “R2625-1G”, Sigma-Aldrich Co., LLC), to an MHM medium of which the composition is shown in Table 1 above.
Subsequently, neurospheres were cultured for 24 hours in the presence of each γ-secretase inhibitor. Each inhibitor was added to a culture medium of the neurosphere so that the final concentration was 10 μM for DAPT, 1 μM for Compound 34, 10 μM for L-685,458, 10 μM for LY411575, 10 μM for Sulindac, and 5 μM for Compound E. In addition, a control group cultured in the absence of a γ-secretase inhibitor was also prepared.
Subsequently, each neurosphere was seeded on a 48-well chamber slide (IWAKI & CO., LTD.) coated with poly-L-ornithine/fibronectin, cultured for 14 days in a culture medium containing no growth factor at 37° C. in an environment of 95% air and 5% CO2, and differentiated into nerve cells.
Subsequently, each of the obtained nerve cells was fixed with 4% paraformaldehyde in 0.1 M PBS, and each of βIII-tubulin, which is a nerve cell marker, and the Tau protein, which is frequently distributed in axons, was immunostained, and the length of the neurite was measured.
FIG. 2 is a graph in which the results of FIGS. 1(a) to 1(g) are quantified. […]

[3] = system: nerve cells induced to differentiate from a neurosphere; settings: nerve cells from a neurosphere on which DAPT has been allowed to act; cited from earlier work
phosphorylated CDC25B = test: Immunostaining of phosphorylated CDC25B in treated neurospheres (Experimental Example 4); type: cell-based, human; settings: 201B7 neurospheres; 10 μM DAPT, 1 μM Compound 34, 24 hours; vs control
Protocol: Neurospheres derived from 201B7 cells were treated with various γ-secretase inhibitors in the same manner as in Experimental Example 1. As the γ-secretase inhibitor, DAPT, Compound 34, L-685,458, LY411575, Sulindac, and Compound E were used at the same concentrations as in Experimental Example 1. Subsequently, each neurosphere was fixed with paraformaldehyde and subjected to immunostaining of phosphorylated CDC25B.
FIG. 8 is a graph showing the results obtained by quantifying the amount of the phosphorylated CDC25B in the neurosphere which had been treated with each of the γ-secretase inhibitors.

SMILES | treatment of spinal cord injury in the chronic phase [1] | neurite outgrowth, Tau protein immunostaining [2] | neurite outgrowth (length of the neurite), βIII-tubulin immunostaining [2] | neurite outgrowth [3] | phosphorylation of p38 MAPK [3] | amount of phosphorylated CDC25B in the neurosphere (phosphorylated CDC25B) | concentration at which the neurite outgrowth-promoting effect is obtained ([2]; compared with DAPT)
C[C@H](NC(=O)Cc1cc(F)cc(F)c1)C(=O)N[C@H](C(=O)OC(C)(C)C)c1ccccc1 [DAPT] | can be treated | particularly promoted | particularly promoted | promoted | increased | significantly increased | –
O=C1Nc2ccccc2C(c2ccccc2)=N[C@@H]1NC(=O)[C@H](c1ccc(F)cc1)[C@@H](CO)c1ccc(F)c(F)c1 [Compound 34] | – | particularly promoted | particularly promoted | – | – | significantly increased | low concentration as compared with DAPT
